# ChEMBL document CHEMBL2146422, “Viequeamide A, a cytotoxic member of the kulolide superfamily of cyclic depsipeptides from a marine button cyanobacterium” (2012)
# The source made the active and inactive calls. The rule behind the calls is not given here. *1 amine or outer side, *2 acyl side, *3 side chain or, on linkers, in order; H or OH if unused. Where a SMILES comes first, the peptide text is derived from it. Bridges are numbered along the chain shown (N, C = ends). [ ]: non-standard residue; d: D form. X1 = C#CCCC[C@H](O[*:2])C(C)(C)C(=O)[*:1]; X3 = C=CCCC[C@H](O[*:2])C(C)(C)C(=O)[*:1]; X2 = CCCCC[C@H](O[*:2])C(C)(C)C(=O)[*:1]; Hmp(2R,3S) = CC[C@H](C)[C@@H](O)C(=O)O; PhLac = O=C(O)[C@@H](O)Cc1ccccc1; NMeV = CN[C@H](C(=O)O)C(C)C; NMeA = CN[C@@H](C)C(=O)O
# Experiments:
# NCI-H460 [1] = test: Cytotoxicity against human H460 cells at 30 ug/mL after 48 hrs by MTT assay; assay type: functional, cell-based
# NCI-H460 [2] = test: Cytotoxicity against human H460 cells after 48 hrs by MTT assay; assay type: functional; conditions: NCI-H460, 48 h, read-out: LD50 (the source's name)
Structure (SMILES),Activity (NCI-H460 [1]),CC50 (NCI-H460 [2])
C=CCCC[C@@H]1OC(=O)[C@H](C(C)C)NC(=O)[C@H](C)N(C)C(=O)[C@@H]2CCCN2C(=O)[C@H](Cc2ccccc2)OC(=O)[C@H](C(C)C)N(C)C(=O)[C@H](C(C)C)NC(=O)C1(C)C (V[NMeV][PhLac]P[NMeA]V; linker N-C via X3),inactive,
CCCCC[C@@H]1OC(=O)[C@H](C(C)C)NC(=O)[C@H](C)N(C)C(=O)[C@@H]2CCCN2C(=O)[C@H](Cc2ccccc2)OC(=O)[C@H](C(C)C)N(C)C(=O)[C@H](C(C)C)NC(=O)C1(C)C (V[NMeV][PhLac]P[NMeA]V; linker N-C via X2),inactive,
C#CCCC[C@@H]1OC(=O)[C@H](C(C)C)NC(=O)[C@H](C)N(C)C(=O)[C@@H]2CCCN2C(=O)[C@H](Cc2ccccc2)OC(=O)[C@H](C(C)C)N(C)C(=O)[C@H](C(C)C)NC(=O)C1(C)C (V[NMeV][PhLac]P[NMeA]V; linker N-C via X1),inactive,
"C#CCCC[C@@H]1OC(=O)[C@H]([C@@H](C)O)NC(=O)[C@H](C(C)C)N(C)C(=O)[C@@H]2CCCN2C(=O)[C@@H]([C@@H](C)CC)OC(=O)[C@H](C(C)C)N(C)C(=O)[C@H](C(C)C)NC(=O)C1(C)C [VIEQUEAMIDE A] (V[NMeV][Hmp(2R,3S)]P[NMeV]T; linker N-C via X1)",,60 nM
